“And” between values parts separate entries of the source, which are not always exact repeats. Equal values may be shown once. Read-outs that look alike come from different tables or passages of the source.
What was measured:
human factor XIa = molecular target: T1, human factor XIa (Homo sapiens, UniProt P03951); assay: Direct inhibition of factor XIa, chromogenic substrate S-2366 hydrolysis assay; format: biochemical; settings: for IC50: read-out: IC50 (converted)
T1 construct: purchased Haematologic Technologies (Essex Junction, Vt.); host or cells: human plasma
Protocol: (§1) Solvent A consisted of 25 mM n-hexylamine in water containing 0.1% (v/v) formic acid, while solvent B consisted of 25 mM n-hexylamine in acetonitrile-water mixture (3:1 v/v) containing 0.1% (v/v) formic acid. […] The sample was first monitored for absorbance in the range of 190-400 nm and then directly introduced into the mass spectrometer. ESI-MS detection was performed in positive ion mode for which the capillary voltage was 4 kV, cone voltage was 20 V, desolvation temperature was 350° C. and nitrogen gas flow was maintained at 650 L/hr. Mass scans were collected in the range of 1000-2048 amu within 0.25 s and several of these added to enhanced signal-to-noise ratio. Direct Inhibition of Factor XIa. […] After 10 min incubation, 5 μL factor XIa substrate (345 μM) was rapidly added and the residual FXIa activity was measured from the initial rate of increase in absorbance at 405 nm. […] Relative residual FXIa activity at each concentration of the inhibitor was calculated from the ratio of FXIa activity in the presence and absence of the inhibitor. Logistic equation 1 was used to fit the dose-dependence of residual protease activity to obtain the potency (IC50) and efficacy (ΔY) of inhibition.
Direct Inhibition of Factor XIa by Sulfated QAOs was performed as described in Example 1.
The ability of the sulfated inositol analogs to inhibit factor XIa was studied using the in vitro assay described in Example 1. In this assay, the factor XIa enzyme is anticipated to hydrolyze a particular peptide linkage in the corresponding peptide substrate releasing p-nitroaniline which absorbs at wavelength of 405 nm giving a line slope corresponds to the enzyme activity. The line slope of no inhibitor status is considered as a reference slope and it depends on the relative concentrations of factor XIa enzyme and its substrate. Factor XIa enzyme concentration was decided to get appropriate reference slope of approximately 25-35, whereas the substrate concentration was set to be larger than its affinity to factor XIa enzyme under equilibrium condition, Km. In presence of potential factor XIa inhibitor, the enzyme capacity to hydrolyze the designated peptide linkage in the substrate gets diminished or completely abolished depending on the inhibitor concentration and efficacy. […] Such decreased slope reflects a drop in the catalytic enzyme activity of factor XIa.

human FXIa = molecular target: T2, human FXIa (Homo sapiens, UniProt P03951); assay: Inhibition of FXIa by SPGG in the presence of UFH (competition); format: biochemical
T2 construct: purchased Haematologic Technologies (Essex Junction, Vt.); host or cells: human plasma
Protocol: as §1
A more quantitative test of competitive binding is the Dixon-Webb relationship, which predicts the effect of an ideal competitor on a measured parameter, e.g. KD or IC50.

factor IXa = molecular target: T3, factor IXa (Homo sapiens, UniProt P00740); assay: Factor IXa chromogenic substrate hydrolysis assay; format: biochemical
T3 construct: purchased Haematologic Technologies (Essex Junction, Vt.); host or cells: human plasma

C57Bl/6 mice = assay: FeCl3 carotid artery thrombosis model; format: in vivo
Protocol: Exposure of the carotid artery of C57Bl/6 mice to FeCl3 (either 3.5% or 5.0%) results in formation of an occlusive platelet-rich thrombus within 15 minute.

T3 sequence (P00740 227-461 limits assumed): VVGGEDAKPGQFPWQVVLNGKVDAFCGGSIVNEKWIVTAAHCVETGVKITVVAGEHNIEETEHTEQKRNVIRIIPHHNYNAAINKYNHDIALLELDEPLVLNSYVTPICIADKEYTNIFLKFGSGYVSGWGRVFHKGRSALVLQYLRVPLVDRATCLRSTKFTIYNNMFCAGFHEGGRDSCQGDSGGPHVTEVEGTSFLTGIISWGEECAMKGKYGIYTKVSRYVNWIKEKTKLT
T3 sequence (P00740 47-191 partner limits assumed): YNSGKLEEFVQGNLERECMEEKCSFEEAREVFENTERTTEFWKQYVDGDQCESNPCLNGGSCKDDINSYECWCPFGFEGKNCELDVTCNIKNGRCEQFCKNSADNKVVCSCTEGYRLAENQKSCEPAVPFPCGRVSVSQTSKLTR
T1 sequence (P03951 19-387 limits assumed): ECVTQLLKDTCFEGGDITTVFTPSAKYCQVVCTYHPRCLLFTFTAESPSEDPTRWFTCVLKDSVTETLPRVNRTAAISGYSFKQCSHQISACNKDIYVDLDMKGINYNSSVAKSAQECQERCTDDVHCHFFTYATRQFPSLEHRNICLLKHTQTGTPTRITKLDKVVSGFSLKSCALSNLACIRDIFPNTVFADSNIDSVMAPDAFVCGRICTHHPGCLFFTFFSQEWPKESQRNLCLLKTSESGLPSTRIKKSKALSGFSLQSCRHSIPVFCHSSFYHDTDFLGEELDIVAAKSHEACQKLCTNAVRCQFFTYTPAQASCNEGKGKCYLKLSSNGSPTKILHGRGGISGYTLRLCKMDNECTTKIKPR
T1 sequence (P03951 388-625 limits assumed): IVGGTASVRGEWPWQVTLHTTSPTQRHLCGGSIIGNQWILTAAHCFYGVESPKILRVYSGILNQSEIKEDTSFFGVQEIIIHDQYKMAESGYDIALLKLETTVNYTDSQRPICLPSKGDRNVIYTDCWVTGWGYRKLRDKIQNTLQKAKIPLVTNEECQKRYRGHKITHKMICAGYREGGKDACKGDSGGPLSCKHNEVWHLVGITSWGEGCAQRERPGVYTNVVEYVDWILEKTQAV
T2 sequence (P03951 19-387 limits assumed): as the sequence (P03951 19-387 limits assumed) above
T2 sequence (P03951 388-625 limits assumed): as the sequence (P03951 388-625 limits assumed) above

What does the source list for O=C(OC[C@H]1O[C@@H](OC(=O)c2cc(OS(=O)(=O)O)c(O)c(OS(=O)(=O)O)c2)[C@H](OC(=O)c2cc(OS(=O)(=O)O)c(O)c(OS(=O)(=O)O)c2)[C@@H](OC(=O)c2cc(OS(=O)(=O)O)c(O)c(OS(=O)(=O)O)c2)[C@@H]1OC(=O)c1cc(OS(=O)(=O)O)c(O)c(OS(=O)(=O)O)c1)c1cc(OS(=O)(=O)O)c(O)c(OS(=O)(=O)O)c1 [SPGG, Sulfated Pentagalloylglucoside]?
efficacy of FXIa inhibition (human factor XIa; chromogenic substrate): ~100% and 97%; ΔY (human factor XIa; efficacy of inhibition): 97.1 ± 3.2; HS (Hill slope) (human factor XIa; pH 7.4, 37° C.): 1.3 and 1.3 ± 0.1; IC50 (human factor XIa; pH 7.4, 37° C., S-2366): 0.689 µM; IC50 (human factor XIa; translated with average molecular weight 2178 g/mol): ~0.55 µM and 0.551 µM; HS (human FXIa; UFH 0 μM): 1.3 ± 0.1; ΔY (human FXIa; UFH 0 μM): 97.1 ± 3.2; IC50 (human FXIa; UFH 0 μM, Dixon-Webb equation, read-out: IC50, predicted (converted)): 0.689 µM; HS (human FXIa; UFH 3.33 μM): 1.7 ± 0.2; ΔY (human FXIa; UFH 3.33 μM): 92.7 ± 6.4; IC50 (human FXIa; UFH 3.33 μM, Dixon-Webb equation, read-out: IC50, predicted (converted)): 2.24 µM; IC50 (human FXIa; UFH 3.33 μM, pH 7.4, 37° C., read-out: IC50 (converted)): 4.02 µM; HS (human FXIa; UFH 33.3 μM): 4.0 ± 0.9; ΔY (human FXIa; UFH 33.3 μM): 58.2 ± 6.6; IC50 (human FXIa; UFH 33.3 μM, pH 7.4, 37° C., read-out: IC50 (converted)): 18 µM and 17.8 µM; IC50 (human FXIa; UFH […], Dixon-Webb equation, read-out: IC50, predicted (converted)): 0.747 µM; HS (factor IXa): 2.2 ± 0.6; IC50 (factor IXa): 655 µM; ΔY (factor IXa): 100.6 ± 5.8; selectivity over factor IXa (factor IXa; FXIa vs factor IXa): 950 fold; arteries in which thrombosis was prevented (C57Bl/6 mice; 3.5% FeCl3, doses of 0.025 to 0.2 mg injected 10 min before FeCl3): ~100%; protection of vessels from occlusion (C57Bl/6 mice; 5.0% FeCl3, dose of 0.2 mg): protected all vessels from occlusion

From US9758459B2, “Allosteric modulators of factor XIa as anticoagulant agents” (VIRGINIA COMMONWEALTH UNIVERSITY, priority 2012, dated 2017)
